Patent US9803450B2, “Use of oligo-quaternary compositions to increase scale inhibitor lifetime in a subterranean formation” (Ecolab USA Inc., priority 2012, dated 2017)

Tests used:
Fathead Minnow = assay: Toxicity, LC50 Fathead Minnow; conditions: in vivo
Protocol: Product A was evaluated for toxicity using various tests.

[1] = Compatibility test of scale inhibitors with Product A in synthetic brine; type: physicochemical; set-up: key: C—Clear; P—Precipitate; conditions: 10% scale inhibitor solution mixed with 10% Product A solution in synthetic brine
Text: Individual solutions (Solutions 1B through 1G) of 10% Product B, C, D, E, F and G, respectively, in a synthetic brine (see the table below showing the synthetic brine composition) were mixed with a 10% solution (Solution 2) of Product A in the synthetic brine. The two sets of solutions were mixed with Solution 2 (i. e., each of Solutions 1B through 1G were mixed with Solution 2) at ratios of 10:90, 30:70, 50:50, 70:30 and 90:10 to indicate that no precipitate would form at any concentration in the mixing concentration range from 10:90 to 90:10. These compatibility screening tests indicate that it is unlikely for any incompatibility to be experienced during deployment and flow back of a squeeze treatment. Any incompatibilities under ambient conditions were observed visually from solution clarity and/or precipitate. The samples were then heated to the test temperature (80° C.) and any further incompatibilities after 2 and 24 hours recorded.

Coreflood = conditions: flow back versus pre-treatment permeability
Protocol: Two corefloods were carried out simultaneously on two Bandera outcrop cores (1.5″ diameter by 3″ length), using a Scaled Solutions dual coreflood apparatus. The composition of these cores is set out in the table below:
Both cores were wrapped with PTFE tape and cased in heat shrink tubing prior to insertion into a Viton sleeve and mounted in a Hassler type core holder with a confining pressure of 1200 psi. Both cores were then flushed with synthetic brine at 1 mL/min for at least 2 hours and until the differential pressure was stable. Brine was flushed at 0.5 mL/min overnight.
Both cores were saturated with synthetic brine under ambient conditions in the forward direction at 1 mL/min for 10 minutes, 2 mL/min for 10 minutes, 3 mL/min for 10 minutes, and 4 mL/min for 2 hours and until the differential pressure was stable. After a stable differential pressure was achieved, the permeability to brine was measured in the forward flow by flooding at 4, 3, 2, 1 mL/min at room temperature.
Brine was then injected into both cores in the forward direction at 1 mL/min until the oven reached a temperature of 80° C. […] Following plug saturation, the permeability of each core to synthetic brine was measured in the forward flow by flooding at 4, 3, 2, and 1 mL/min at 80° C. […]
Both cores were injected with synthetic brine at 2 mL/min with effluent samples being collected. The samples were analyzed by ICP. […]

[2] = ratio printed 10:90 (fifth column)
[3] = ratio printed 30:70 (fourth column)

Row | Permeability Recovery (Coreflood) [%] | Permeability Recovery (Coreflood; listed as Brine/10% Product B) [%] | Molecule | LC50 Fathead Minnow (Fathead Minnow) | Clarity of Mixed Solutions ([1]; ratio 10:90 (first column)) | Clarity of Mixed Solutions ([1]; ratio 30:70 (second column)) | Clarity of Mixed Solutions ([1]; ratio 50:50) | Clarity of Mixed Solutions [1, 2] | Clarity of Mixed Solutions [1, 3]
1 |  |  | C[N+](C)(C)CC(O)C[N+](C)(C)C.[Cl-].[Cl-] [Product A, 1,3-propandiaminium, 2-hydroxy-N,N,N,N′,N′,N′-hexamethyl-, dichloride] | >1,000 mg/L |  |  |  |  | 
2 | 75 | 75 | O=P(O)(O)CN(CCCCCCN(CP(=O)(O)O)CP(=O)(O)O)CCCCCCN(CP(=O)(O)O)CP(=O)(O)O [Product B, BHMT phosphonate] |  | C | C | C | C | C
3 |  |  | DETA phosphonate [Product C] |  | C | C | C | C | C
